From article PMC8725944, “Design and synthesis of chromone-nitrogen mustard derivatives and evaluation of anti-breast cancer activity” (Journal of Enzyme Inhibition and Medicinal Chemistry, 2021)

Tested on: TNBC cell line MDA-MB-231
Experiment: CCK-8 assay, antiproliferative activity against MDA-MB-231
Details: Homo sapiens, MDA-MB-231, 72 h, read-out: IC50 MDA-MB-231

| Compound | IC50 [µM] |
| --- | --- |
| COc1cccc2c1C(=O)c1c(O)c3c(c(O)c1C2=O)C[C@@](O)(C(=O)CO)C[C@@H]3O[C@H]1C[C@H](N)[C@H](O)[C@H](C)O1 [Adriamycin, reference compound] | 2.94 ± 0.12 |
| N[C@@H](Cc1ccc(N(CCCl)CCCl)cc1)C(=O)O [Compound 5, melphalan, reference compound] | > 20 |
| O=CN[C@@H](Cc1ccc(N(CCCl)CCCl)cc1)C(=O)O [Compound 6, formylmerphalan, reference compound] | > 20 |
| CC(C)(C)OC(=O)N[C@@H](Cc1ccc(N(CCCl)CCCl)cc1)C(=O)O [Compound 7, Boc-protected melphalan, reference compound] | > 20 |
| COC(=O)[C@H](Cc1ccc(N(CCCl)CCCl)cc1)NC(=O)CCC(=O)O [Compound 9, reference compound] | > 20 |
| COC(=O)[C@H](Cc1ccc(N(CCCl)CCCl)cc1)NC(=O)CCCC(=O)O [Compound 10, reference compound] | > 20 |
| Cc1ccc2occ(CO)c(=O)c2c1 [Compound 15] | > 20 |
| COc1ccc2occ(CO)c(=O)c2c1 [Compound 16] | > 20 |
| Cc1ccc2occ(COC(=O)c3ccc(N(CCCl)CCCl)cc3)c(=O)c2c1 [Compound 17a, (6-Methyl-4-oxo-4H-chromen-3-yl)methyl 4-(bis(2-chloroethyl)amino)benzoate] | 9.57 ± 0.65 |
| Cc1ccc2occ(COC(=O)[C@H](Cc3ccc(N(CCCl)CCCl)cc3)NC=O)c(=O)c2c1 [Compound 17b, (6-Methyl-4-oxo-4H-chromen-3-yl)methyl (S)-3–(4-(bis(2-chloroethyl)amino)phenyl)-2-formamidopropanoate] | 13.2 ± 1.12 |
| Cc1ccc2occ(COC(=O)[C@H](Cc3ccc(N(CCCl)CCCl)cc3)NC(=O)OC(C)(C)C)c(=O)c2c1 [Compound 17c, (6-Methyl-4-oxo-4H-chromen-3-yl)methyl (S)-3-(4-(bis(2-chloroethyl)amino)phenyl)-2-((tert-butoxycarbonyl)amino)propanoate] | > 20 |
| COC(=O)[C@H](Cc1ccc(N(CCCl)CCCl)cc1)NC(=O)CCC(=O)OCc1coc2ccc(C)cc2c1=O [Compound 17d, (6-Methyl-4-oxo-4H-chromen-3-yl)methyl (S)-4-((3-(4-(bis(2-chloroethyl)amino)phenyl)-1-methoxy-1-oxopropan-2-yl)amino)-4-oxobutanoate] | 11.4 ± 0.2 |
| COC(=O)[C@H](Cc1ccc(N(CCCl)CCCl)cc1)NC(=O)CCCC(=O)OCc1coc2ccc(C)cc2c1=O [Compound 17e, (6-Methyl-4-oxo-4H-chromen-3-yl)methyl (S)-5-((3-(4-(bis(2-chloroethyl)amino)phenyl)-1-methoxy-1-oxopropan-2-yl)amino)-5-oxopentanoate] | 8.32 ± 0.34 |
| COc1ccc2occ(COC(=O)c3ccc(N(CCCl)CCCl)cc3)c(=O)c2c1 [Compound 18a, (6-Methoxy-4-oxo-4H-chromen-3-yl)methyl 4-(bis(2-chloroethyl)amino)benzoate] | 9.47 ± 0.38 |
| COc1ccc2occ(COC(=O)[C@H](Cc3ccc(N(CCCl)CCCl)cc3)NC=O)c(=O)c2c1 [Compound 18b, (6-Methoxy-4-oxo-4H-chromen-3-yl)methyl (S)-3-(4-(bis(2-chloroethyl)amino)phenyl)-2-formamidopropanoate] | 11.5 ± 0.35 |
| COc1ccc2occ(COC(=O)[C@H](Cc3ccc(N(CCCl)CCCl)cc3)NC(=O)OC(C)(C)C)c(=O)c2c1 [Compound 18c, (6-Methoxy-4-oxo-4H-chromen-3-yl)methyl (S)-3-(4-(bis(2-chloroethyl)amino)phenyl)-2-((tert-butoxycarbonyl)amino)propanoate] | 16.7 ± 0.69 |
| COC(=O)[C@H](Cc1ccc(N(CCCl)CCCl)cc1)NC(=O)CCC(=O)OCc1coc2ccc(OC)cc2c1=O [Compound 18d, (6-Methoxy-4-oxo-4H-chromen-3-yl)methyl (S)-4-((3-(4-(bis(2-chloroethyl)amino)phenyl)-1-methoxy-1-oxopropan-2-yl)amino)-4-oxobutanoate] | 12.8 ± 0.32 |
| COC(=O)[C@H](Cc1ccc(N(CCCl)CCCl)cc1)NC(=O)CCCC(=O)OCc1coc2ccc(OC)cc2c1=O [Compound 18e, (6-Methoxy-4-oxo-4H-chromen-3-yl)methyl (S)-5-((3-(4-(bis(2-chloroethyl)amino)phenyl)-1-methoxy-1-oxopropan-2-yl)amino)-5-oxopentanoate] | 8.98 ± 0.26 |
| Cc1ccc2occ(CN)c(=O)c2c1 [Compound 19] | > 20 |
| COc1ccc2occ(CN)c(=O)c2c1 [Compound 20] | > 20 |
| Cc1ccc2occ(CNC(=O)c3ccc(N(CCCl)CCCl)cc3)c(=O)c2c1 [Compound 21a, 4-(Bis(2-chloroethyl)amino)-N-((6-methyl-4-oxo-4H-chromen-3-yl)methyl)benzamide] | 14.9 ± 1.06 |
| Cc1ccc2occ(CNC(=O)[C@H](Cc3ccc(N(CCCl)CCCl)cc3)NC=O)c(=O)c2c1 [Compound 21b, (S)-3-(4-(bis(2-chloroethyl)amino)phenyl)-2-formamido-N-((6-methyl-4-oxo-4H-chromen-3-yl)methyl)propanamide] | 9.42 ± 0.29 |
| Cc1ccc2occ(CNC(=O)[C@H](Cc3ccc(N(CCCl)CCCl)cc3)NC(=O)OC(C)(C)C)c(=O)c2c1 [Compound 21c, Tert-butyl (S)-(3-(4-(bis(2-chloroethyl)amino)phenyl)-1-(((6-methyl-4-oxo-4H-chromen-3-yl)methyl)amino)-1-oxopropan-2-yl)carbamate] | 12.7 ± 0.48 |
| COC(=O)[C@H](Cc1ccc(N(CCCl)CCCl)cc1)NC(=O)CCC(=O)NCc1coc2ccc(C)cc2c1=O [Compound 21d, Methyl (S)-3-(4-(bis(2-chloroethyl)amino)phenyl)-2-(4-(((6-methyl-4-oxo-4H-chromen-3-yl)methyl)amino)-4-oxobutanamido)propanoate] | 6.87 ± 0.19 |
| COC(=O)[C@H](Cc1ccc(N(CCCl)CCCl)cc1)NC(=O)CCCC(=O)NCc1coc2ccc(C)cc2c1=O [Compound 21e, Methyl (S)-3-(4-(bis(2-chloroethyl)amino)phenyl)-2–(5-(((6-methyl-4-oxo-4H-chromen-3-yl)methyl)amino)-5-oxopentanamido)propanoate] | 4.47 ± 0.15 |
| COc1ccc2occ(CNC(=O)c3ccc(N(CCCl)CCCl)cc3)c(=O)c2c1 [Compound 22a, 4-(Bis(2-chloroethyl)amino)-N-((6-methoxy-4-oxo-4H-chromen-3-yl)methyl)benzamide] | 10.6 ± 0.58 |
| COc1ccc2occ(CNC(=O)[C@H](Cc3ccc(N(CCCl)CCCl)cc3)NC=O)c(=O)c2c1 [Compound 22b, (S)-3-(4-(bis(2-chloroethyl)amino)phenyl)-2-formamido-N-((6-methoxy-4-oxo-4H-chromen-3-yl)methyl)propanamide] | 4.65 ± 0.22 |
| COc1ccc2occ(CNC(=O)[C@H](Cc3ccc(N(CCCl)CCCl)cc3)NC(=O)OC(C)(C)C)c(=O)c2c1 [Compound 22c, Tert-butyl (S)-(3-(4-(bis(2-chloroethyl)amino)phenyl)-1-(((6-methoxy-4-oxo-4H-chromen-3-yl)methyl)amino)-1-oxopropan-2-yl)carbamate] | 9.87 ± 0.36 |
| COC(=O)[C@H](Cc1ccc(N(CCCl)CCCl)cc1)NC(=O)CCC(=O)NCc1coc2ccc(OC)cc2c1=O [Compound 22d, Methyl (S)-3-(4-(bis(2-chloroethyl)amino)phenyl)-2-(4-(((6-methoxy-4-oxo-4H-chromen-3-yl)methyl)amino)-4-oxobutanamido)propanoate] | 3.05 ± 0.14 |
